Assay [1] deals with replication of HAdV-5 in HEp-2 cells. As to the kind of experiment: Antiviral activity assay, CPE inhibition. Format: cell-based. The following applies: Human adenovirus sp., HEp-2, read-out: IC50, antiviral activity on the replication of HAdV-5. The protocol: For checking the viral load, the antiviral screening based on the viral yield reduction technique was used. The cytopathic inhibition assay (CPE) utilizes 100 CCID50 loading in 0.1 mL of a monolayer of confluent cells in 96-well plates. After 1 h of virus adsorption, the extract was added in various concentrations, and cells were incubated for 48 h at 37 °C. The viable cells were stained according to the neutral red uptake procedure and the percentage of CPE inhibition for each concentration of the test sample was calculated using the following formula: % CPE = [ODtest sample − ODvirus control]/[ODtoxicity control − ODvirus control] × 100. The concentration of the material inhibition 50% of viral replication when compared to the virus control was defined as the 50% inhibitory concentration (IC50). The ratio CC50/IC50 was calculated to evaluate the selectivity index (SI).

For another assay, the system named is B. cereus. The assay is described as follows: Disc test on agar medium. Format: cell-based, Bacillus cereus. The following applies: discs, gentamicin disc 10 µg. The protocol: (§1) Initially, the compounds were tested on an agar medium using commercial discs with gentamicin (10 µg) as a standard against B. cereus and P. aeruginosa used as model bacterial strains. As a result, no inhibition zones were observed around the discs with the compounds against both tested strains. With gentamicin, zones (mm in diameter) of 15 mm against B. cereus, and 12 mm against P. aeruginosa, were measured.
(§2) The antibacterial activity of the investigated compounds was tested against Gram-positive Bacillus cereus and Gram-negative Pseudomonas aeruginosa used as model strains (Collection of the Institute of Microbiology, Bulgarian Academy of Sciences). Microbial cultures were maintained at 4 °C on meat-peptone agar (MPA) slants and transferred monthly.

Another assay concerns P. aeruginosa. The assay is described as follows: Disc test on agar medium. Format: cell-based, Pseudomonas aeruginosa. The note with it: discs, gentamicin disc 10 µg. The protocol: as §1, §2

The values that follow come from PMC9332204, “Study of Novel Peptides for Antimicrobial Protection in Solution and on Cotton Fabric” (Molecules, 2022).

For `NC(=O)c1ncn([C@@H]2O[C@H](CO)[C@@H](O)[C@H]2O)n1` [Ribavirin], the IC50 in assay [1] was 115 µM.

As for `CNC(C)C1CCC(N)C(OC2C(N)CC(N)C(OC3OCC(C)(O)C(NC)C3O)C2O)O1` (stereo not drawn) [gentamicin], the “inhibition zone (mm in diameter)” value with B. cereus was 15 mm; in the assay with P. aeruginosa it was 12 mm.

As usually defined, the IC50 is the concentration at which inhibition is half-maximal.
